Data: the OPERA property sets (Mansouri et al. 2018)

Structure (SMILES) | logP
O=C(Nc1ccc(F)cc1)c1cc(Cl)cc(Cl)c1O | 4.76
O=C(Nc1ccc(Cl)cc1[N+](=O)[O-])c1cc(Br)cc(Br)c1O | 5.05
O=C(Nc1ccc(Cl)cc1[N+](=O)[O-])c1ccccc1O | 4.09
O=C(Nc1ccc(F)cc1F)c1cc(Cl)cc(Cl)c1O | 4.55
O=C(Nc1ccc(Cl)cc1[N+](=O)[O-])c1cc(Cl)cc(Cl)c1O | 5.08
Cc1cc(Cl)ccc1NC(=O)c1cc(F)ccc1O | 4.89
O=C(Nc1ccccc1Cl)c1ccccc1O | 4.35
O=C(Nc1ccc(Cl)cc1)c1cc(Cl)cc(Cl)c1O | 5.15
Cc1cc(Br)ccc1NC(=O)c1cc(F)ccc1O | 5.15
Cc1cc([N+](=O)[O-])ccc1NC(=O)c1cc(Cl)cc(Cl)c1O | 4.51
O=C(Nc1ccc(F)cc1F)c1cc(Br)cc(Br)c1O | 4.99
O=C(Nc1ccccc1[N+](=O)[O-])c1ccccc1O | 2.87

The next lines start with the values.

logP | Structure (SMILES)
5.18 | Cc1cc(Cl)ccc1NC(=O)c1ccccc1O
3.66 | O=C(Nc1ccccc1)c1cc([N+](=O)[O-])ccc1O
4.5 | O=C(Nc1ccc(Cl)cc1)c1ccccc1O
4.51 | O=C(Nc1ccc(Br)cc1)c1ccccc1O
4.01 | O=C(Nc1ccccc1)c1cc(Cl)cc(Cl)c1O
4.21 | Cc1ccccc1NC(=O)c1cc(Cl)ccc1O
5.49 | O=C(Nc1ccc(Cl)cc1Cl)c1ccccc1O
5.02 | O=C(Nc1ccc(Cl)cc1)c1cc(Br)ccc1O
4.05 | O=C(Nc1ccccc1)c1cc(Cl)ccc1O
